From patent US20180207228A1, “PEPTIDE COMBINATIONS AND USES THEREOF FOR TREATING GRASS ALLERGY” (ALK-Abelló A/S, priority 2015, published 2018) come the findings set out here.

Format in all cases: cell-based, human
For assay [1], the system named is grass pollen allergic donor derived TCL-03 lines. The experiment in a line: Extended cross-reactivity study, proliferation on TCL03 DK1+DK2 (Study XR2), scoring. Particulars: study XR2; for Cross-reactivity score, Dac g: homologue from Dac g; for Cross-reactivity score, Dac g / Cross-reactivity score, Fes p / Cross-reactivity score, Lol p / Cross-reactivity score, Pha a / Cross-reactivity score, Poa p / Cross-reactivity score, Cyn d / Cross-reactivity score, Pas n / Cross-reactivity score, Sor h: score 0 to 7; for Cross-reactivity score, Fes p: homologue from Fes p; for Cross-reactivity score, Lol p: homologue from Lol p; for Cross-reactivity score, Pha a: homologue from Pha a; for Cross-reactivity score, Poa p: homologue from Poa p; for Cross-reactivity sum: scores of all species added; for Cross-reactivity/species: sum divided by the number of species measured; for Cross-reactivity score, Cyn d: homologue from Cyn d; for Cross-reactivity score, Pas n: homologue from Pas n; for Cross-reactivity score, Sor h: homologue from Sor h.

The test system of assay [2] is grass allergic donor derived T cell lines (TCL-02 DK-2). The experiment in a line: Cross-reactivity of homologue peptides, proliferation on TCL02-DK2 (Study XR1). The following applies: 2 μg/ml, TCL02-DK2, 21 donors. The method, then: To measure the experimental cross-reactivity the proliferation assay of Example 3 was carried out on 21 grass allergic donors (TCL02-DK2). […] Cross-reactivity to Phleum pratense peptides with either close (Lolium perenne (Lol p)) or distant (Phalaris aquatica (Pha a), Cynodon dactylon (Cyn d)) species was experimentally investigated.
For analysing the cross-reactivity data, it was investigated if a donor responds to both native and homologue peptide, XY correlation plots were made where the donor responses to native peptides were plotted versus the donor responses to homologues. […] If less than five donors were responding to the parent peptides, then the data was considered to be in-conclusive, and were thus labelled with “-”. For some of the peptides the analysis was further supported by performing a Spearman r-Non Parametric test (data not shown).
Further the magnitude of T cell response from a parent peptide as defined herein and homologue response were plotted in a XY plot by using GraphPad Prism 6.
To measure the experimental cross-reactivity, the proliferation assay of Example 3 was carried out on 21 grass pollen allergic donors (TCL02-DK2, Study XR1) and 20 grass pollen allergic donors (TCL03−DK1+DK2, Study XR2). […] In Study XR1, Cross-reactivity to Phleum pratense peptides with either close (Lolium perenne-Lol p) or distant ([…]-Pha a, Cynodon dactylon-Cyn d) species was experimentally investigated. In Study XR1, 67 homologue peptides corresponding to 41 native Phleum pratense peptides were investigated together with the 41 Phleum pratense peptides at a concentration of 2 μg/ml. Similarly, study XR2 was carried out on 20 grass pollen allergic donors where donor derived TCL-03 lines were used to investigate Phleum pratense cross-reactivity to Poa pratensis (Poa p), Dactylis glomerata (Dac g), Festuca pratensis (Fes p), Paspalum notatum (Pas n), Sorghum halepense (Sor h), Lolium perenne (Lol p), Phalaris aquatica (Pha a) and Cynodon dactylon (Cyn d).

The subject of assay [3] is release of IFN-γ upon T cell activation. The experiment in a line: Fluorospot assay, IFN-γ release (DK1-TCL01, US1-TCL01). The following applies: head prints TCL-02 DK1; 17 TCL-01 DK1 lines. Summed up:
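Grass-allergic donors' CD8-depleted PBMCs were expanded 14 days with natural grass allergens plus IL-2 to give TCL01 lines. These were incubated 20 h at 37° C with single peptides or peptide mixes at 2 μg/ml, and spot-forming cells were counted. Hit: SI≥2, p≤0.05, Poisson ≤0.05, ≥20 SFC/10^6 cells.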

“Also recorded” adds a separate entry of the source. Where no end group is shown, it is not given here.

On to AYESYKFIPALEAAVKQAYA-OH [peptide 285], for which, in assay [1], the “Cross-reactivity score, Dac g” value was determined as 6; the “Cross-reactivity score, Fes p” value is given as 6; the “Cross-reactivity score, Lol p” value is on record as 6; the “Cross-reactivity score, Pha a” value was 6. Moreover, in assay [1], the “Cross-reactivity score, Poa p” value turned out to be 7; the Cross-reactivity sum came to 31; the Cross-reactivity/species came out at 6.2.
With DKYRTFVATFGAASNKAFAE-OH [peptide 231], the experimental cross-reactivity result in assay [2] is on record as “showed cross-reactivity”.
PANDKFTVFEAAFNNAIKAS-OH [compound 70]: in assay [3], the “IFN-gamma % donor coverage (TCL-02 DK1)” value is on record as 0.00%. In addition, the experimental cross-reactivity result in assay [2] was “showed cross-reactivity; also recorded: good cross reactivity”.
For the substance STGGAYESYKFIPALEAAVK-OH [compound 71], in assay [3], the “IFN-gamma % donor coverage (TCL-02 DK1)” value stood at 0.00%. The experimental cross-reactivity result in assay [2] is on record as “showed cross-reactivity; also recorded: very good cross-reactivity”. In addition, in assay [1], the “Cross-reactivity score, Dac g” value is reported as 5; the “Cross-reactivity score, Fes p” value was determined as 5; the “Cross-reactivity score, Lol p” value is 5; the “Cross-reactivity score, Pha a” value is listed as 5. Further, in assay [1], the “Cross-reactivity score, Poa p” value amounted to 4; the Cross-reactivity sum is 24; the Cross-reactivity/species is reported as 4.8.
Turning to TDDNEEPIAPYHFDLSGHAF-OH [peptide 204], in assay [2], the experimental cross-reactivity entry was “showed cross-reactivity; also recorded: good cross-reactivity”. In addition, in assay [1], the “Cross-reactivity score, Cyn d” value was determined as 1.5; the “Cross-reactivity score, Dac g” value is 7; the “Cross-reactivity score, Fes p” value is 7; the “Cross-reactivity score, Lol p” value stood at 7. In addition, in assay [1], the “Cross-reactivity score, Pas n” value is reported as 1; the “Cross-reactivity score, Pha a” value was 7; the “Cross-reactivity score, Poa p” value is 1.5; the “Cross-reactivity score, Sor h” value was 2. In assay [1], this substance yielded a Cross-reactivity sum of 34 and a Cross-reactivity/species of 4.25.
Consider VATLSEALRIIAGTLEVHAV-OH [compound 67], for which the “IFN-gamma % donor coverage (TCL-02 DK1)” value in assay [3] is 4.00%. Besides, the experimental cross-reactivity entry in assay [2] was “showed cross-reactivity”.
Regarding WGAIWRIDTPDKLTGPFTVR-OH [peptide 211], in assay [1], the “Cross-reactivity score, Cyn d” value was 0.5; the “Cross-reactivity score, Dac g” value worked out at 5; the “Cross-reactivity score, Fes p” value is given as 4; the “Cross-reactivity score, Lol p” value is on record as 4. Besides, in assay [1], the “Cross-reactivity score, Pas n” value came out at 1; the “Cross-reactivity score, Pha a” value stood at 7; the “Cross-reactivity score, Poa p” value is listed as 3; the “Cross-reactivity score, Sor h” value is listed as 0.5. In assay [1], this substance displayed a Cross-reactivity sum of 25 and a Cross-reactivity/species of 3.12.
